These results are taken from patent EP2435019B1, “DODECA-2E,4E-DIENE AMIDES AND THEIR USE AS MEDICAMENTS AND COSMETICS” (Dr. August Wolff GmbH & Co. KG Arzneimittel, priority 2009, dated 2010).

SMILES strings stand for the structures. Where only a bound is given, the exact number is not on record here.

The target of data set [1] is T1, human recombinant Fatty acid amide hydrolase (Homo sapiens, UniProt O00519).
T1 sequence (O00519 1-579): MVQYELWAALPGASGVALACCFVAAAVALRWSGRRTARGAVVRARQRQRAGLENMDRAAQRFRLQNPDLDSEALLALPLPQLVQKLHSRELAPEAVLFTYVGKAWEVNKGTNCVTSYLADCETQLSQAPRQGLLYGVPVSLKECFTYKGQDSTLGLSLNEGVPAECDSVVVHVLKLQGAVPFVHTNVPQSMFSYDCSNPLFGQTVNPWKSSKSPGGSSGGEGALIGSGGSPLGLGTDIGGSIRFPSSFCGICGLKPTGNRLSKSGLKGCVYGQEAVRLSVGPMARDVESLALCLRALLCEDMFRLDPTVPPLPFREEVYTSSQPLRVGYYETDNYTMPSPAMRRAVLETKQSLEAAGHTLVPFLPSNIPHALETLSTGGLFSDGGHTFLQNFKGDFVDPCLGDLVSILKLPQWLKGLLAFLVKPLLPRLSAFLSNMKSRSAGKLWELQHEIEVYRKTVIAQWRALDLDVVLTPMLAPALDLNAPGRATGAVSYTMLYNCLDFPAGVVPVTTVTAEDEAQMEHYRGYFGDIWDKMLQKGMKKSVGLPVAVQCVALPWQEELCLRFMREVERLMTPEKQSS
Nature of the data set: Inhibition of human recombinant FAAH, fluorometric method (assay G). In kind it is biochemical. The note with it: human recombinant enzyme, AMC-anandamide substrate (assay G). The protocol: FAAH activity is measured using the modified method described by Omeir et al., Arachidonoyl ethanolamide-[1,2-14C] as a substrate for anandamide amidase. Life Sci. 1995;56(23-24):1999-2005. Human recombinant enzyme is preincubated with reference compound (methylarachidonlyfluorophosphonate, MAFP) and test compounds for 30 min at room temperature in 50 mM Tris containing 1 mM EDTA and 0.1% fatty acid free BSA (pH 8.0). Substrate (7-amino-4-methyl coumarin-arachidonamide, AMC-anandamide) is then added and incubated for 30 min at room temperature. The reaction is stopped by the addition of 2.5 µl of 10 µM URB597. Released 7-amino-4-methyl coumarin (AMC) is detected by fluorometry in order to ascertain any interactions of test compounds with the FAAH enzyme.

Data set [2] in a line: Critical micelle concentration (CMC) measurement, dye micellization. The format is physicochemical. The note with it: fluorescein dye micellization in water, pH 6.9, room temperature.
In data set [3] the test system is Anandamide transport. Nature of the data set: Anandamide transport (human) cellular functional assay (assay F). The format is cell-based. The conditions noted are these: human U-937 cells, 0.1 µM [3H]-Anandamide, 20 min (assay F). As to the method: Anandamide transport is determined using human U-937 cells as receptor source. [3H]-Anandamide (0.1 Ci/mmol), final concentration 0.1 µM is used as substrate. AM-404 is used as reference compound. Reactions are carried out in KRH buffer (pH 7.4) at 37°C for 20 min. The reaction is terminated by rapid vacuum filtration onto glass fiber filters. Radioactivity trapped onto filters is determined and compared to control values in order to ascertain any interactions of test compound with anandamide uptake (Hiiliard C.J. The movement of N-arachidonylethanolamide (anandamide) across cellular membranes. Chem. Physics Lipids. 2008;108:123-134, with modifications).

Data set [4] addresses T2, FAAH (Sus scrofa, UniProt Q9TUI8).
T2 construct: 165 µl of diluted pig brain homogenate; from tissue; host or cells: pig brain homogenate
T2 sequence (Q9TUI8 1-579): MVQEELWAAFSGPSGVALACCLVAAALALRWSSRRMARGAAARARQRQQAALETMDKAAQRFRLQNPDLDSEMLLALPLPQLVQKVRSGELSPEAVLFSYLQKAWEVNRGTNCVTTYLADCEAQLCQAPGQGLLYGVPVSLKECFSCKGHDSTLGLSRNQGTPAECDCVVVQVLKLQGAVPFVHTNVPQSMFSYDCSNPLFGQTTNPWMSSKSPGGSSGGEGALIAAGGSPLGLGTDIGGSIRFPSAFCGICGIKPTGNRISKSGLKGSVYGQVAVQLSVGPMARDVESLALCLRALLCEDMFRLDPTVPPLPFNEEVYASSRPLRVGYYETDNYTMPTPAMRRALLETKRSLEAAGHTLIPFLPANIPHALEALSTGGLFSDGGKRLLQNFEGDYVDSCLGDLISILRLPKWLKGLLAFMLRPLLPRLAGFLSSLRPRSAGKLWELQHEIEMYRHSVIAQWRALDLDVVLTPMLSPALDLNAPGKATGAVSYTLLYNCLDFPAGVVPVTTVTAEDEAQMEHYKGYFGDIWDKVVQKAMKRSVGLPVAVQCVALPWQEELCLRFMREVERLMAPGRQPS
Nature of the data set: Fatty acid amide hydrolase (FAAH) inhibition, pig brain homogenate (assay D). In kind it is biochemical. The conditions noted are these: 1 µM; pig brain homogenate (assay D).

With `CCCCCCC/C=C/C=C/C(=O)NCCO` [Example 1, (2E,4E)-N-(2-hydroxyethyl)dodeca-2,4-diene amide], the “FAAH inhibition at 1 µM” value in data set [1] was 9 % of control; in data set [4] it was <10 % of control. In addition, the CMC in data set [2] is more than 10 µM. Besides, the “AEAT inhibition at 1 µM” value in data set [3] is 28 % of control.

As to `CCCCCCC/C=C/C=C/C(=O)NCCc1cccc(OC)c1` [Example 9, (2E,4E)-N-(3-methoxyphenethyl)dodeca-2,4-diene amide], the figures for the “FAAH inhibition at 1 µM” value in data set [1] and in data set [4] were 16 % of control and 14.63 ± 2.91 % of control, respectively. The CMC in data set [2] was more than 5 µM. Moreover, in data set [3], the “AEAT inhibition at 1 µM” value is listed as 34 % of control.
